Experimental data as given in paper PMC10014103, “The immunometabolite itaconate stimulates OXGR1 to promote mucociliary clearance during the pulmonary innate immune response” (The Journal of Clinical Investigation, 2023).
Read-outs that look alike come from different tables or passages of the source.

Tests used:
human OXGR1 [1] = biological target: T1, human OXGR1 (Homo sapiens, UniProt Q96P68); assay: Stress fiber assay in NIH3T3 cells stably expressing OXGR1; format: cell-based, mouse; settings: 500 μM ITA, 30 minutes, G12/13 coupling
Description: For the stress fiber assay, NIH3T3 cells stably expressing OXGR1 were treated with 500 μM ITA or 10 μM lysophosphatidic acid (LPA) for 30 minutes. Cells were fixed with 4% paraformaldehyde and permeabilized with 0.1% Triton X-100. Stress fibers were stained with FITC-phalloidin (Invitrogen, Thermo Fisher Scientific). Nuclei were stained with DAPI. Immunofluorescence images were captured with a Leica SP8 laser-scanning confocal microscope.

[2] = system: mucin 5b and β-defensin 1; assay: ELISA of mucin 5b and β-defensin 1 in BAL of P. aeruginosa infected mice; format: in vivo, mouse; settings: ITA intranasal supplementation, P. aeruginosa infection
From the text: Mucins and antimicrobial polypeptides are essential immune defense components secreted by the respiratory tract ([41], [42]). To test the hypothesis that ITA/OXGR1 signaling may alter the concentration of mucins and antimicrobial polypeptides, we performed an ELISA to quantify the concentration of mucin 5b and β-defensin 1 in the mouse models of P. aeruginosa infection. […] It should be noted that Oxgr1 activation by ITA can simultaneously facilitate mucus secretion and mucus transport (Figure 4). These 2 “opposite” effects of ITA/OXGR1 on mucus may explain the observation of a lack of significant change in mucin 5b and β-defensin 1 in the airway’s surface liquid.

mouse trachea = assay: Ex vivo trachea culture, cilia beating-derived fluorescent bead movement; settings: 500 μM ITA or 100 μM ATP
Description: Tracheas were harvested from mice and cut longitudinally through the middle of the trachealis muscle to expose the lumen of the trachea. Tracheas were then transferred into HBSS buffer and equilibrated for 30 minutes. With the lumen facing down, trachea tissues were transferred into 2 mL HBSS buffer supplemented with 0.5% methylcellulose, red fluorescent beads, 30 mM HEPES, and the indicated ligand. Bead flow was monitored with the BioTek Cytation 5 cell imaging system. Twenty individual beads were tracked from different fields of view in each condition, and the speed of each bead was calculated by […].

[3] = system: primary respiratory epithelial cells from Oxgr1+/+ and Oxgr1–/– mice; assay: Calcium imaging (Fluo-4AM) of primary mouse trachea epithelial cells; format: cell-based; settings: 670 μM ITA or 100 μM ATP
Description: For calcium imaging of human primary bronchial epithelial cells, cells were infected with 2 CRISPR lentiviruses targeting OXGR1 and cultured for 2 days before calcium imaging. For calcium imaging of primary mouse cells, freshly isolated mouse tracheas were cut into rings, placed onto collagen-coated dishes, and cultured in DMEM supplemented with 10% FBS. Cells were loaded with 5 μM Fluo-4AM for 30 minutes in HBSS buffer, washed twice, and incubated for another 15 minutes for fully deesterification of Fluo-4AM. Cells loaded with Fluo-4AM were monitored with the BioTek Cytation 5 Cell imaging system every 300 ms for a total of 1.5 minutes after ligand administration. Fluorescence was quantified with ImageJ software (NIH).

human OXGR1 [4] = biological target: T1, human OXGR1; assay: Aequorin assay (calcium mobilization) in HEK293 cells overexpressing human OXGR1; format: cell-based; settings: for EC50: read-out: EC50
Description: Thirty-six hours after transfection, cells were maintained in serum-free medium for 12 hours and then loaded with 5 μM coelenterazine for 3 hours. Cells were trypsinized and resuspended at a density of 5 × 10^5 cells/mL in HBSS supplemented with 10 mM HEPES and 0.5% BSA. Cell suspensions of 100 μL were aliquoted into 96-well plates.

OXGR1 [5] = assay: ERK phosphorylation by Western blotting in OXGR1-expressing HEK293 cells; format: cell-based, human; settings: 5 μM to 1 mM for 15 minutes
Description: HEK293 cells were transiently transfected with plasmids expressing empty vector or FLAG-tagged OXGR1 using PolyJet reagent. The medium was switched to serum-free DMEM 36 hours after transfection. After serum starvation for another 12 hours, cells were stimulated with the indicated ligand and lysed in Laemmli buffer. Protein lysate was separated on standard SDS-PAGE, transferred onto a PVDF membrane, and then subjected to immunoblotting with the following antibodies: anti–p-ERK (catalog 4370, Cell Signaling Technology); anti-Flag (catalog 14793, Cell Signaling Technology); anti-IRG1/anti-ACOD1 (catalog 19857, Cell Signaling Technology); anti-Myc (catalog 2278, Cell Signaling Technology); anti-ERK (catalog 67170-1-Ig, Proteintech); and anti-actin (catalog A00702, GenScript).

OXGR1 [6] = assay: Cellular thermal shift assay of OXGR1; format: binding, human; settings: 1 mM ITA, 37 to 62 °C
Description: Supplementary Figure 4. ITA increases the thermostability of OXGR1
Cells expressing Myc-tagged BirA along with AviTag-tagged wildtype (A) or R110A mutant (B) OXGR1 were treated with 1 μM biotin for 16 hours in serum-free medium to biotinylate OXGR1 in native conformation. Cells were treated with or without 1mM ITA, lysed, and incubated under different temperatures (from 37 to 62℃) for 3 minutes.
Denatured protein was removed by centrifuge. Biotinylated OXGR1 was determined by Western blot and quantified. […]

[7] = system: Pseudomonas aeruginosa strain PAO1; assay: Mouse intranasal infection with P. aeruginosa strain PAO1, CFU in BAL and lung; format: in vivo; settings: intranasal 1 mM ITA with PAO1, 12 hours after infection
Description: A 1 × 10^7 log-phase PAO1 strain in 40 μL PBS was used for infection of the mice. Mice were gently restrained by the scruff at a 45° angle. PBS with the indicated strains was delivered to the nares. PBS alone or with 1 mM ITA was codelivered along with PAO1. Mouse mouths were covered during the whole procedure to ensure complete inhalation into the nose and the lower respiratory tract. BAL and lung tissue were collected 12 hours of infection and plated in cetyl trimethyl ammonium bromide (CTAB) selection agar. The numbers of CFU were counted after 18 hours of culture.

human OXGR1 [8] = biological target: T1, human OXGR1; assay: cAMP GloSensor assay in HEK293 cells expressing human OXGR1; format: cell-based; settings: 0.5 mM ligand, Gs/Gi coupling
Description: For the GloSensor assay, HEK293 cells stably expressing pGloSensor-22F were transfected with GPCR plasmids. Thirty-six hours after transfection, cells were trypsinized and resuspended at a density of 2.5 × 10^5 cells/mL in HBSS supplemented with 10 mM HEPES, 0.5% BSA, 2% GloSensor cAMP Reagent stock solution (Promega), and 300 μM IBMX, and loaded with GloSensor substrates for 2 hours. Cell suspensions (100 μL) were aliquoted onto 96-well plates. Cells were treated with 0.5 mM of the indicated ligand or 1 μM forskolin, and luminance was recorded.

Structure (SMILES): C=C(CC(=O)O)C(=O)O [ITA, itaconate]
- stress fiber formation (human OXGR1 [1]): failed to affect stress fiber formation
- level of mucin 5b in BAL [2]: Neither ITA intranasal supplementation nor Irg1 or Oxgr1 KO altered the levels
- level of β-defensin 1 in BAL [2]: Neither ITA intranasal supplementation nor Irg1 or Oxgr1 KO altered the levels
- movement of beads, trachea from Oxgr1+/+ mice (mouse trachea): significantly increased the movement of beads
- calcium mobilization, Oxgr1+/+ cells [3]: rapid calcium mobilization
- calcium response (agonist effect) (human OXGR1 [4]; HEK293 cells overexpressing human OXGR1, aequorin): stimulated the calcium response in a dose-dependent manner
- EC50 (human OXGR1 [4]; OXGR1, as stated in abstract): ~300 µM
- EC50 (human OXGR1 [4]; aequorin assay, hOXGR1 in HEK293 cells): 310 ± 45.2 µM
- EC50 (human OXGR1 [4]; human OXGR1, text summary of Figure 1F and Supplemental Figure 2 (aequorin and Fluo-4)): 200 to 300 µM
- phosphorylation of ERK (OXGR1 [5]): dose-dependently induced
- thermal stability of WT OXGR1 (OXGR1 [6]): increased the thermal stability
- bacterial overgrowth phenotype (CFU in BAL and lung), Irg1–/– mice [7]: rescued the bacterial overgrowth phenotype
- intracellular cAMP (human OXGR1 [8]): did not affect intracellular cAMP
